{"source": "patent US9132118B2", "about": "“Taxane analogs for the treatment of brain cancer” (Tapestry Pharmaceuticals, Inc., priority 2007, dated 2015)", "key": {"[1]": {"system": "bovine microtubule protein (tubulin plus microtubule associated proteins)", "experiment": "In vitro ED50 MT polymerization study (DAPI fluorescence tubulin assay)", "format": "biochemical", "method": "In this tubulin binding assay, microtubule protein (MTP) is used as a substrate. The assay contains bovine tubulin plus microtubule associated proteins (MAP). MTP is polymerized into microtubules in the presence of DAPI (4′,6′-diamidino-2-phenylindole), a fluorescent compound. DAPI binds to tubulin; when microtubules are formed and there is an enhancement of fluorescence. The microtubule formation is measured as a function of time, using a fluorescence plate reader. […] The method used is based on the procedure published by Donna M. Barron, et al, “Fluorescence-based high-throughput assay for antimicrotuble drugs” Analytical Biochemistry, 315: 49-56, 2003, which is incorporated by reference in its entirety. The excitation wavelength, in that assay, was set at 370 nm and the emission wavelength was set at 450 nm for the DAPI experiments.\nA Bio-Tek FL 600 microplate Fluorescence Reader was used to measure the relative level of fluorescence in the DAPI assay.\nAssays were conducted in 96-well plates. […] The final DMSO concentration was 4%. The plates were incubated at 37° C. for 30 minutes and read in a fluorescence plate reader using an excitation wavelength of 360 nm and an emission wavelength of 460 nm. Fluorescence values were corrected for the sample without compound. […] Experiments were done twice in triplicate. Results were subsequently combined and fit to a non-linear regression program."}, "[2]": {"experiment": "Phase 1 Study S-(1)-02, i.v. every 21 days, safety and pharmacokinetics", "format": "in vivo, patients", "conditions": "for AUC0-24 / Cl / Vss / t1/2: Study S-(1)-02 (15:85 Cremophor EL-P/ethanol), i.v., first dose; for half-life: human, plasma, intravenous", "method": "treatment cycles are repeated every 28 days in patients who remain eligible for continued treatment. Study S-(1)-O1 is currently being conducted in the United States. […] Study S-(I)-02 is currently being conducted in the United States and in Israel.\nPlasma pharmacokinetics of S-(1) were assessed following the first dose of S-(1) in both studies. Plasma samples were analyzed for S-(1) using a validated LC/MS-MS method.\nTreatment cohorts were expanded to 6 pts in the face of dose-limiting toxicity (DLT); pts could remain on study until the development of progressive disease or an intolerable adverse event. DLT was defined as Gr 4 heme toxicity lasting 7 days; febrile neutropenia, Gr 3 thrombocytopenia with bleeding, Gr 3 elevation of transaminases lasting 7 days or any other Gr ¾ toxicity other than nausea or vomiting."}, "[3]": {"system": "human tumor xenografts", "experiment": "Efficacy of oral or iv S-(1) in mouse xenografts", "format": "in vivo, nude mice", "conditions": "human tumor xenografts in nude mice", "method": "(§1) Summary of Experimental Protocol: Human neuroblastoma tumor cells were implanted via subcutaneous injection of 1-10×10^6 cells in nude mice. Tumors were allowed to grow to 200 mg+/−50 mg in size. Drug dosing was initiated, and tumor volume and body weight were recorded twice weekly.\n(§2) The mean value for % body weight change and % tumor volume increase for each experimental group was plotted including error bars for the standard error of the mean.\n(§3) Other metrics for assessing antitumor effects include: % T/C values as calculated by the following formula:\n(§4) [formula] Log Kill=(T−C)/3.32×(Td)"}, "[4]": {"experiment": "Efficacy of oral or iv S-(1) in mouse xenografts", "format": "in vivo, nude mice", "conditions": "mouse, in vivo, po; nude mice; from efficacy studies and MTD studies; read-out: apparent oral bioavailability", "method": "as §1, §2, §3, §4"}}, "note": "Entries after “also recorded” stand apart in the source; their conditions may differ. Like-named read-outs stand apart in the source and are kept apart here.", "data": [{"smiles": "C=C[C@H]1O[C@H]2CC3OC[C@@]3(OC(C)=O)[C@H]3[C@H](OC(=O)c4ccccc4)[C@]4(C(C)(C)O)C[C@H](OC(=O)[C@H](O)[C@H](CC(C)C)NC(=O)OC(C)(C)C)C(C)=C4[C@H](OC(C)=O)[C@H](O1)[C@]23C", "note": "(stereo partly drawn) [S-(1)]", "values": [{"measurement": "ED50 Compound/ED50 Paclitaxel", "setting": "[1]; ratio of tubulin polymerization ED50 values", "value": 0.53}, {"measurement": "EC50", "setting": "[1]; tubulin polymerization, 37° C. 30 minutes, percent of maximum assembly at 25 μM paclitaxel", "value": "1580 ± 460", "unit": "nM"}, {"measurement": "AUC0-24", "setting": "[2]; 56 mg/m^2, plasma", "value": "2530 ± 847", "unit": "ng·h/mL"}, {"measurement": "Cl", "setting": "[2]; 56 mg/m^2, plasma", "value": "18.9 ± 9.53", "unit": "L/hr/m^2"}, {"measurement": "Vss", "setting": "[2]; 56 mg/m^2, plasma", "value": "232 ± 93.6", "unit": "L/m^2"}, {"measurement": "t1/2", "setting": "[2]; 56 mg/m^2, plasma", "value": "8.96 ± 7.09", "unit": "h"}, {"measurement": "AUC0-24", "setting": "[2]; 84 mg/m^2, plasma", "value": 3710, "unit": "ng·h/mL"}, {"measurement": "Cl", "setting": "[2]; 84 mg/m^2, plasma", "value": 15.4, "unit": "L/hr/m^2"}, {"measurement": "Vss", "setting": "[2]; 84 mg/m^2, plasma", "value": 300, "unit": "L/m^2"}, {"measurement": "AUC0-24", "setting": "[2]; 126 mg/m^2, plasma", "value": "6110 ± 3030", "unit": "ng·h/mL"}, {"measurement": "Cl", "setting": "[2]; 126 mg/m^2, plasma", "value": "22.1 ± 11.2", "unit": "L/hr/m^2"}, {"measurement": "Vss", "setting": "[2]; 126 mg/m^2, plasma", "value": "166 ± 105", "unit": "L/m^2"}, {"measurement": "t1/2", "setting": "[2]; 126 mg/m^2, plasma", "value": "6.27 ± 3.64", "unit": "h"}, {"measurement": "AUC0-24", "setting": "[2]; 185 mg/m^2, plasma", "value": "7260 ± 2620", "unit": "ng·h/mL"}, {"measurement": "Cl", "setting": "[2]; 185 mg/m^2, plasma", "value": "24.7 ± 12.2", "unit": "L/hr/m^2"}, {"measurement": "Vss", "setting": "[2]; 185 mg/m^2, plasma", "value": "215 ± 116", "unit": "L/m^2"}, {"measurement": "t1/2", "setting": "[2]; 185 mg/m^2, plasma", "value": "3.43 ± 7.31", "unit": "h"}, {"measurement": "dose limiting toxicity", "setting": "[2]; Study S-(1)-02, i.v. every 21 days, 185 mg/m^2 (2 patients)", "value": "Grade 3 sensory neuropathy; also recorded: Gr 3 peripheral sensory neuropathy"}, {"measurement": "dose that can be safely administered", "setting": "[2]; every 21 days in heavily pre-treated patients", "value": 160, "unit": "mg/m^2"}, {"measurement": "patients who experienced Gr 4 neutropenia", "setting": "[2]; every 21 days, 14 patients", "value": 1, "unit": "pt"}, {"measurement": "drug related adverse events", "setting": "[2]; every 21 days, 56-185 mg/m^2, 14 patients", "value": "mucositis, vomiting, diarrhea, neutropenia, thrombocytopenia, myalgias and peripheral neuropathy"}, {"measurement": "dose limiting toxicity", "setting": "[2]; every 21 days, dose of 160 mg/m^2", "value": "no DLT was observed"}, {"measurement": "dose dependence of AUC (in words)", "setting": "[2]; every-21-days study", "value": "generally dose linear"}, {"measurement": "clearance", "setting": "[2]; every-21-days study summary, dose of 126 mg/m^2", "value": "24.7±12.2", "unit": "L/hr/m^2"}, {"measurement": "tumor response", "setting": "[2]; every-21-days study, patients with advanced cancer", "value": "1 pt with pancreatic cancer had a confirmed response"}, {"measurement": "half-life", "setting": "[2]; 126 mg/m2, every-21-days study summary, dose of 126 mg/m^2, read-out: t1/2 (converted)", "value": 10.6, "unit": "h"}, {"measurement": "half-life", "setting": "[2]; Study S-(1)-02, after first dose, read-out: Plasma t1/2, range over dose groups", "value": "3.43 to 8.96", "unit": "h"}, {"measurement": "efficacy / antitumor activity in mouse xenografts (in words)", "setting": "[3]", "value": "demonstrated antitumor activity against multiple human tumor xenografts in nude mice, including xenografts that expressed mdr-1 and that were resistant to other taxanes; also recorded: suppressed the growth of multiple human tumor xenografts in nude mice, including xenografts that expressed mdr-1 and that were resistant to other taxanes; also recorded: shows efficacy"}, {"measurement": "bioavailability", "setting": "[4]", "value": "70 to 80", "unit": "%"}]}]}
